# Measured values: US7470671B2, “Thioxylose compounds, preparation method thereof, pharmaceutical compositions containing same and use thereof in therapeutics” (Laboratoire Fournier, priority 2003, dated 2008)
# Structures can show the parent of a compound that is named as a salt. Where two headings read alike, the source gives them in different places.
# Test system: venous thrombosis
# Test: venous thrombosis test in the rat (venous stasis under hypercoagulation with factor Xa, Wessler technique)
# Type: in vivo
# Conditions: Wistar male rats
# Experimental: The antithrombotic activity of the compounds according to the invention was studied in vivo in the rat by means of a test that reproduces a venous thrombosis.
# The venous thrombosis was induced according to the protocol described in Thromb. Haemost., 1992, 67(1), 176-179. The intravenous or oral activity was studied according to the following operating protocol:
# The experiments are performed on non-fasted Wistar male rats weighing 250 to 280 g, divided into groups of 10 animals each. The test products are administered either orally (tubage) dissolved or suspended in isotonic solution, or by intravenous injection dissolved in isotonic solution or in a PEG 400/water mixture. The concentration of the compounds is calculated so that the amount of solution absorbed is 2 ml/kg by oral administration and 1 ml/kg by intravenous injection. A thrombosis is induced at a time T (0.5, 2, 4 or 8 hours) after administration of the product, and the thrombus formed is removed and weighed. To induce this thrombosis, a venous stasis is created under hypercoagulation according to the technique described by WESSLER (J Applied Physiol., 1959, 943-946), the hypercoagulating agent used being a solution of activated factor X (Xa) having a concentration of 7.5 nKat/kg, supplied by Biogenic (Montpellier). The venous stasis is effected exactly 15 seconds after injection of the hypercoagulating agent. The activity of the test compounds was checked at different doses after they had been administered either orally (p.o.) or intravenously (i.v.). The thrombosis was induced 2 hours or 4 hours after oral administration of the compound and 2 hours after intravenous administration of the compound.
# [1] = Rattus norvegicus, po, 2 h, oral, thrombosis induced 2 h after administration, read-out: Activity % (percentage inhibition of thrombus formation)
# [2] = Rattus norvegicus, iv, 2 h, intravenous, thrombosis induced 2 h after administration, read-out: Activity % (percentage inhibition of thrombus formation)
# [3] = Rattus norvegicus, po, 4 h, oral, thrombosis induced 4 h after administration, read-out: Activity % (percentage inhibition of thrombus formation)
# [4] = intravenous, dose 2.5 mg/kg, thrombosis induced 2 h after administration
compound,measurement,setting,value
"O[C@@H]1[C@@H](O)[C@H](Oc2cccnc2Cl)SC[C@H]1O [Example 37, 2-Chloro-3-Pyridinyl 5-Thio-β-D-Xylopyranoside]",inhibition in vivo at 6 mg/kg,[1],96%
"O[C@@H]1[C@@H](O)[C@H](Oc2ccc(C(F)(F)F)nc2)SC[C@H]1O [Example 41, 6-(Trifluoromethyl)-3-Pyridinyl 5-Thio-β-D-Xylopyranoside]",inhibition in vivo at 6 mg/kg,[1],97%
"O[C@@H]1[C@@H](O)[C@H](Oc2cncc(F)c2)SC[C@H]1O [Example 49, 5-Fluoro-3-Pyridinyl 5-Thio-β-D-Xylopyranoside]",inhibition in vivo at 6 mg/kg,[1],90%
"CC(=O)O[C@@H]1[C@@H](OC(C)=O)[C@H](OC(C)=O)CS[C@H]1Oc1cccnc1 [Example 1A, 3-Pyridinyl 2,3,4-tri-O-acetyl-5-thio-β-D-Xylopyranoside Methanesulfonate]",inhibition in vivo at 4 mg/kg,[2],83%
same,inhibition in vivo at 6 mg/kg,[3],51%
"CCCC(=O)O[C@@H]1[C@@H](OC(=O)CCC)[C@H](OC(=O)CCC)CS[C@H]1Oc1cccnc1 [Example 93, 3-Pyridinyl 2,3,4-Tri-O-Butanoyl-5-Thio-β-D-Xylopyranoside]",inhibition in vivo at 6 mg/kg,[1],81%
"CC(=O)O[C@@H]1[C@@H](OC(C)=O)[C@H](OC(C)=O)CS[C@H]1Oc1cccnc1Cl [Example 36, 2-Chloro-3-Pyridinyl 2,3,4-Tri-O-Acetyl-5-Thio-β-D-Xylopyranoside]",inhibition in vivo at 6 mg/kg,[1],91%
"COC(=O)O[C@@H]1[C@@H](OC(=O)OC)[C@H](OC(=O)OC)CS[C@H]1Oc1cccnc1 [Example 31A, 3-Pyridinyl 2,3,4-Tris-O-(Methoxycarbonyl)-5-Thio-β-D-Xylopyranoside Hydrochloride]",inhibition in vivo at 5.6 mg/kg,"Rattus norvegicus, po, 4 h, oral, dose 5.6 mg/kg, thrombosis induced 4 h after administration, read-out: Activity % (percentage inhibition of thrombus formation)",63%
"O[C@@H]1[C@@H](O)[C@H](Oc2cncc(Cl)c2)SC[C@H]1O [Example 18, 5-Chloro-3-Pyridinyl 5-Thio-β-D-Xylopyranoside]",inhibition in vivo at 3 mg/kg,[3],46%
"O[C@@H]1[C@@H](O)[C@H](Oc2cccnc2)SC[C@H]1O [Example 2, 3-Pyridinyl 5-Thio-β-D-Xylopyranoside]",inhibition in vivo at 2.5 mg/kg,"Rattus norvegicus, iv, 2 h, intravenous, dose 2.5 mg/kg, thrombosis induced 2 h after administration, read-out: Activity % (percentage inhibition of thrombus formation)",72%
same,inhibition in vivo at 1.5 mg/kg,"Rattus norvegicus, po, 4 h, oral, dose 1.5 mg/kg, thrombosis induced 4 h after administration, read-out: Activity % (percentage inhibition of thrombus formation)",67%
same,inhibition in vivo at 3 mg/kg,[3],91%
"COC(=O)O[C@@H]1[C@@H](OC(=O)OC)[C@H](OC(=O)OC)CS[C@H]1Oc1cccnc1 [Example 31B, 3-Pyridinyl 2,3,4-Tris-O-(Methoxycarbonyl)-5-Thio-β-D-Xylopyranoside Methanesulfonate]",inhibition in vivo at 5 mg/kg,[2],88%
same,inhibition in vivo at 8 mg/kg,"Rattus norvegicus, po, 4 h, oral, dose 8 mg/kg, thrombosis induced 4 h after administration, read-out: Activity % (percentage inhibition of thrombus formation)",94%
"CS(=O)(=O)O.O[C@@H]1[C@@H](O)[C@H](Oc2cccnc2)SC[C@H]1O [Example 2A, 3-Pyridinyl 5-Thio-β-D-Xylopyranoside Methanesulfonate]",inhibition in vivo at 5 mg/kg,[2],94%
same,inhibition in vivo at 4.2 mg/kg,"Rattus norvegicus, po, 2 h, oral, dose 4.2 mg/kg, thrombosis induced 2 h after administration, read-out: Activity % (percentage inhibition of thrombus formation)",96%
same,Activity % (percentage inhibition of thrombus formation),[4],68%
"Cl.O[C@@H]1[C@@H](O)[C@H](Oc2cccnc2)SC[C@H]1O [Example 2C, 3-Pyridinyl 5-Thio-β-D-Xylopyranoside Hydrochloride]",inhibition in vivo at 4 mg/kg,[2],95%
same,inhibition in vivo at 6 mg/kg,[3],55%
same,Activity % (percentage inhibition of thrombus formation),[4],72%
"Cc1ncccc1O[C@@H]1SC[C@@H](O)[C@H](O)[C@H]1O [Example 12, 2-Methyl-3-Pyridinyl 5-Thio-β-D-Xylopyranoside]",inhibition in vivo at 3 mg/kg,[3],52%
"N#Cc1ncccc1O[C@@H]1SC[C@@H](O)[C@H](O)[C@H]1O [Example 20, 2-Cyano-3-Pyridinyl 5-Thio-β-D-Xylopyranoside]",inhibition in vivo at 3 mg/kg,[3],50%
